These results are taken from ChEMBL document CHEMBL1201862, “PubChem BioAssay data set” (2004).

Common to all, as to test: NCI anticancer screen, dose series, 48 h
The test system of assay [1] is HOP-62.
Assay [2] concerns HCT-15.
In assay [3] the test system is MDA-MB-231.
In assay [4] the test system is OVCAR-3.
Assay [5] deals with IGROV-1.
Assay [6] relates to KM12.
For assay [7], the system named is PC-3.
In assay [8] the test system is NCI-H226.
In assay [9] the test system is SK-MEL-28.
Assay [10] relates to NCI-H522.
Assay [11] deals with SF-539.
For assay [12], the system named is Malme-3M.
Assay [13] deals with SR.
Assay [14] concerns HOP-92.
The test system of assay [15] is OVCAR-4.
For assay [16], the system named is CAKI-1.
For assay [17], the system named is M14.
The test system of assay [18] is ACHN.
The test system of assay [19] is MDA-N.
For assay [20], the system named is SW-620.

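In this assay, cells in 96-well plates receive the compound at five concentrations for 48 hours. Endpoints are linearly interpolated between the surrounding concentrations. GI50 = concentration required for 50% inhibition of growth.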 The source made the active and inactive calls. No stated cut-off is given here; in the data, active = GI50 up to about 1.1 µM and inactive = higher.

With `CCOC(=O)C(=Cc1ccccc1Cl)C(=O)OCC`, the GI50 is 2.13 µM (inactive) in assay [1]; 1.72 µM in assay [2]; 1.83 µM (inactive) in [3]; 1.41 µM (inactive) in assay [4]; 3.49 µM (inactive) in [5]; 1.31 µM (inactive) in assay [6]. Besides, the GI50 in assay [7] was 1.79 µM (inactive); in assay [8], 2.9 µM (inactive); in assay [9], 1.94 µM (inactive); in [10], 2.03 µM (inactive); in [11] it was 2.1 µM (inactive); in assay [12], 1.82 µM (inactive). Further, the GI50 in [13] is 0.547 µM (active); in assay [14] it was 2.88 µM (inactive); in [15] it was 2.27 µM (inactive); in assay [16], 2.02 µM (inactive); in [17], 1.5 µM (inactive); in [18] it was 2.61 µM (inactive). Moreover, the GI50 in assay [19] is 1.12 µM (active); in assay [20], 1.32 µM (inactive).

Turning to `NCCC(N)C(=O)O` (stereo not given), the GI50 is > 100 µM (inactive) in assay [1]; above 100 µM in assay [2]; > 100 µM (inactive) in assay [3]; > 100 µM (inactive) in assay [4]; > 100 µM (inactive) in [5]; > 100 µM (inactive) in assay [6]. Besides, the GI50 in assay [7], in [8], in [9], in assay [10], in assay [11] and in assay [12] was > 100 µM (inactive) throughout. For the same compound, the GI50 in assay [13], in [14], in assay [15], in [16], in [17] and in assay [18] was > 100 µM (inactive) throughout. The GI50 in assay [19] and in assay [20] was > 100 µM (inactive) in each case.

With `Cc1ccc(NC(c2ccccc2)P(=O)(c2ccccc2)c2ccccc2)cc1` (stereo not given), the GI50 in [1] is 95.5 µM (inactive); in [2], above 100 µM; in assay [3], > 100 µM (inactive); in assay [4], > 100 µM (inactive); in assay [5], > 100 µM (inactive); in assay [6], > 100 µM (inactive). The GI50 in assay [7], in assay [8], in assay [9], in assay [10], in assay [11] and in assay [12] was > 100 µM (inactive) each time. The GI50 in assay [13] is 60.3 µM (inactive); in assay [14], 27.2 µM (inactive); in assay [15], > 100 µM (inactive); in assay [16], > 100 µM (inactive); in assay [17], > 100 µM (inactive); in assay [18] it was 63.7 µM (inactive). Also, the GI50 in assay [19] and in assay [20] was > 100 µM (inactive) in each case.

In the case of `CNC(=S)NNc1ncnc2c1c(-c1ccc(Cl)cc1)cn2-c1ccc(C)cc1`, the GI50 in assay [1] was 17.6 µM (inactive); in assay [2] it was 8.39 µM; in assay [3] it was 7.8 µM (inactive); in [4] it was 11.5 µM (inactive); in [5], 10.4 µM (inactive); in [6], 7.71 µM (inactive). The GI50 in assay [7] is 5.45 µM (inactive); in assay [8] it was 24.6 µM (inactive); in assay [9] it was 11.4 µM (inactive); in assay [10], 7.76 µM (inactive); in [11] it was 16 µM (inactive); in [12] it was 13.1 µM (inactive). Further, the GI50 was 2.21 µM (inactive) in [13]; 15.5 µM (inactive) in [14]; 15.6 µM (inactive) in [15]; 8.07 µM (inactive) in assay [16]; 12.6 µM (inactive) in assay [17]; 10 µM (inactive) in assay [18]. The GI50 in assay [19] was 8.61 µM (inactive); in [20], 6.67 µM (inactive).

In the case of `C=C(Br)C[N+]12CN3CN(CN(C3)C1)C2`, the GI50 is > 100 µM (inactive) in assay [1]; above 100 µM in assay [2]; > 100 µM (inactive) in [3]; > 100 µM (inactive) in assay [4]; > 100 µM (inactive) in assay [5]; > 100 µM (inactive) in [6]. The GI50 in assay [7], in assay [8], in assay [9], in assay [10], in [11] and in [12] was > 100 µM (inactive) in each case. For the same compound, the GI50 in assay [13], in assay [14], in [15], in assay [16], in assay [17] and in assay [18] was > 100 µM (inactive) in each case. For the same compound, the GI50 in assay [19] and in assay [20] was > 100 µM (inactive) throughout.

For the compound `COC(=O)C1CCC(=O)N1CN(C(C)=O)c1cc(OC)ccc1OC` (stereo not given), the GI50 in assay [1] was > 100 µM (inactive); in assay [2], above 100 µM; in [3], > 100 µM (inactive); in assay [4], > 100 µM (inactive); in assay [5], > 100 µM (inactive); in assay [6], > 100 µM (inactive). In addition, the GI50 in assay [7], in assay [8], in assay [9], in [10], in [11] and in assay [12] was > 100 µM (inactive) throughout. Also, the GI50 in [13] is 16.9 µM (inactive); in assay [14], > 100 µM (inactive); in assay [15] it was > 100 µM (inactive); in assay [16], > 100 µM (inactive); in assay [17] it was > 100 µM (inactive); in assay [18], > 100 µM (inactive). For the same compound, the GI50 in assay [19] and in assay [20] was > 100 µM (inactive) throughout.

As for `N#CC(NNC(=O)Cc1ccccc1)c1ccccc1O` (stereo not given), the GI50 was 15.8 µM (inactive) in [1]; 4.25 µM in assay [2]; 8.2 µM (inactive) in assay [3]; 3.75 µM (inactive) in [4]; 21.2 µM (inactive) in assay [5]; 11.6 µM (inactive) in assay [6]. Besides, the GI50 in assay [7] is 5.79 µM (inactive); in assay [8], 17.3 µM (inactive); in assay [9], 26.2 µM (inactive); in [10], 4.88 µM (inactive); in [11] it was 16.4 µM (inactive); in assay [12], 16.3 µM (inactive). Also, the GI50 in assay [13] was 7.29 µM (inactive); in assay [14], 23.3 µM (inactive); in assay [15], 11.8 µM (inactive); in assay [16], 12.6 µM (inactive); in assay [17], 10.5 µM (inactive); in [18], 6.56 µM (inactive). Also, the GI50 in assay [19] is 19.4 µM (inactive); in assay [20] it was 10.2 µM (inactive).

For `CCCCOC(=O)NC(Nc1cccc(C(F)(F)F)c1)(C(F)(F)F)C(F)(F)F`, the GI50 in [1] was > 100 µM (inactive); in assay [2], 45.2 µM; in assay [3] it was > 100 µM (inactive); in assay [4], 56 µM (inactive); in [5], 49.5 µM (inactive); in assay [6], 75.9 µM (inactive). In addition, the GI50 was 68.7 µM (inactive) in assay [7]; 53.7 µM (inactive) in assay [8]; > 100 µM (inactive) in assay [9]; 56.4 µM (inactive) in assay [10]; 73.6 µM (inactive) in assay [11]; 29.2 µM (inactive) in assay [12]. In addition, the GI50 in [13] was 23.1 µM (inactive); in assay [14], 23.9 µM (inactive); in assay [15], 99.8 µM (inactive); in [16], 49.2 µM (inactive); in assay [17], 47.3 µM (inactive); in assay [18] it was 47.4 µM (inactive). Moreover, the GI50 in assay [19] was 41.4 µM (inactive); in assay [20] it was 64.3 µM (inactive).

As to `CC(C)O/N=C/c1cc(NC(=S)OC(C)C)ccc1Cl`, the GI50 in [1] is 37.8 µM (inactive); in [2] it was 36.9 µM; in assay [3], 19.1 µM (inactive); in [4], 32.5 µM (inactive); in assay [5] it was 28.2 µM (inactive); in [6] it was 50.9 µM (inactive). Further, the GI50 in assay [7] is 36.8 µM (inactive); in assay [8] it was 28.8 µM (inactive); in assay [9], > 62.2 µM (inactive); in [10], 26 µM (inactive); in assay [11] it was 24.8 µM (inactive); in [12], > 91.8 µM (inactive). Besides, the GI50 was 16.1 µM (inactive) in assay [13]; > 44.2 µM (inactive) in assay [14]; 31.7 µM (inactive) in assay [15]; 22.9 µM (inactive) in assay [16]; 62.7 µM (inactive) in assay [17]; 35.2 µM (inactive) in [18]. Also, the GI50 in assay [19] was > 69.5 µM (inactive); in assay [20], 45.2 µM (inactive).

For the compound `Cc1cc(=O)oc2c(CNC(Cc3ccccc3)C(=O)O)c(O)ccc12` (stereo not given), the GI50 was > 100 µM (inactive) in [1]; above 100 µM in [2]; > 100 µM (inactive) in assay [3]; > 100 µM (inactive) in assay [4]; > 100 µM (inactive) in [5]; > 100 µM (inactive) in assay [6]. Besides, the GI50 was > 100 µM (inactive) in [7]; > 100 µM (inactive) in assay [8]; > 100 µM (inactive) in assay [9]; > 100 µM (inactive) in assay [10]; > 100 µM (inactive) in assay [11]; 61.5 µM (inactive) in assay [12]. The GI50 in assay [13], in [14], in assay [15], in [16], in assay [17] and in assay [18] was > 100 µM (inactive) in each case. In addition, the GI50 in assay [19] and in assay [20] was > 100 µM (inactive) each time.
